Experimental data as given in patent publication US8486962B2, “Antifungal agents” (F2G Ltd., priority 2005, dated 2013).
Values after ≈ are worked out from the molar mass of the structure shown. Read-outs that look alike come from different tables or passages of the source.

Key:
Aspergillus flavus = test: MIC, YAG medium, Aspergillus flavus; type: cell-based; conditions: Aspergillus flavus, read-out: MIC A Flavus 01
Method in brief: (§1)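 Broth microdilution over doubling dilutions (50-0.05 mg/L). C. albicans in RPMI with 2% glucose and 0.135M MOPS (pH7.0), 1-2×10^3 cfu/ml, 24-48 hrs at 35° C; MIC = >80% growth inhibition by OD485. Aspergillus spp. in YAG (1% glucose, 1% ammonium chloride, 0.5% yeast extract), 1-2×10^4 cfu/ml, 24 hrs, >70% inhibition.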

[1] = test system: Aspergillus fumigatus AF293; test: MIC, YAG medium, Aspergillus fumigatus AF293; type: cell-based; conditions: Aspergillus fumigatus
Method in brief: as §1

Aspergillus niger = test: MIC, YAG medium, Aspergillus niger; type: cell-based; conditions: Aspergillus niger, read-out: MIC A Niger 1
Method in brief: as §1

Aspergillus terreus = test: MIC, YAG medium, Aspergillus terreus; type: cell-based; conditions: Aspergillus terreus, read-out: MIC A Terreus 4
Method in brief: as §1

[2] = test system: Aspergillus fumigatus AF210; test: MIC, YAG medium, Aspergillus fumigatus AF210; type: cell-based; conditions: Aspergillus fumigatus
Method in brief: as §1

A Terreus 49 = test: MIC, YAG medium, A Terreus 49; type: cell-based, Aspergillus terreus; conditions: Aspergillus terreus, read-out: MIC A Terreus 49
Method in brief: as §1

[3] = AF293, YAG medium, read-out: MIC A Fum. 293
[4] = AF210, YAG medium, read-out: MIC A Fum. 210

SMILES	MIC (Aspergillus flavus; YAG medium) [µg/mL]	MIC [1, 3] [µg/mL]	MIC (Aspergillus niger; YAG medium) [µg/mL]	MIC (Aspergillus terreus; YAG medium) [µg/mL]	MIC [2, 4] [µg/mL]	MIC (A Terreus 49; YAG medium) [µg/mL]	MIC (Aspergillus flavus) [µg/mL]	MIC ([1]; AF293, read-out: MIC A Fum. 293) [µg/mL]	MIC (Aspergillus niger) [µg/mL]	MIC (Aspergillus terreus) [µg/mL]	MIC ([2]; AF210, read-out: MIC A Fum. 210) [µg/mL]	MIC (A Terreus 49) [µg/mL]
O=C(Nc1ccc(N2CCOCC2)cc1)C(=O)c1c(-c2ccccc2)cc2ccccn12 [Example 251, N-(4-Morpholin-4-yl-phenyl)-2-oxo-2-(2-phenyl-indolizin-3-yl)-acetamide]	0.062 (≈ 0.146 µM)	0.12 (≈ 0.282 µM)	0.062 (≈ 0.146 µM)	0.031 (≈ 0.0729 µM)	0.12 (≈ 0.282 µM)	0.015 (≈ 0.0353 µM)						
CC(C)c1ccc(NC(=O)C(=O)c2c(-c3ccccc3)cc3ccccn23)cc1 [Example 252, N-(4-Isopropyl-phenyl)-2-oxo-2-(2-phenyl-indolizin-3-yl)-acetamide]	0.015 (≈ 0.0392 µM)	0.008 (≈ 0.0209 µM)	0.004 (≈ 0.0105 µM)	0.008 (≈ 0.0209 µM)	0.062 (≈ 0.162 µM)	0.002 (≈ 0.00523 µM)						
CN(C)c1ccc(NC(=O)C(=O)c2c(-c3cccnc3)cc3ccccn23)cn1 [Example 253, N-(6-Dimethylamino-pyridin-3-yl)-2-oxo-2-(2-pyridin-3-yl-indolizin-3-yl)-acetamide]	25 (≈ 64.9 µM)	> 50	> 50	12.5 (≈ 32.4 µM)	> 50	12.5 (≈ 32.4 µM)						
C=CCc1c(F)ccc(NC(=O)C(=O)c2c(-c3ccccc3)cc3ccccn23)c1OC [Example 254, N-(3-Allyl-4-fluoro-2-methoxy-phenyl)-2-oxo-2-(2-phenyl-indolizin-3-yl)-acetamide]	0.4 (≈ 0.934 µM)	1.6 (≈ 3.73 µM)	0.4 (≈ 0.934 µM)	0.1 (≈ 0.233 µM)	0.8 (≈ 1.87 µM)	0.2 (≈ 0.467 µM)						
CC(O)c1ccc(NC(=O)C(=O)c2c(-c3ccccc3)cc3ccccn23)cc1 (stereo not drawn) [Example 255, N-[4-(1-Hydroxy-ethyl)-phenyl]-2-oxo-2-(2-phenyl-indolizin-3-yl)-acetamide]	0.2 (≈ 0.52 µM)	1.6 (≈ 4.16 µM)	0.4 (≈ 1.04 µM)	0.2 (≈ 0.52 µM)	0.8 (≈ 2.08 µM)	0.1 (≈ 0.26 µM)						
Cn1ccc2cc(NC(=O)C(=O)c3c(-c4ccccc4)cc4ccccn34)ccc21 [Example 256, N-(1-Methyl-1H-indol-5-yl)-2-oxo-2-(2-phenyl-indolizin-3-yl)-acetamide]	0.04 (≈ 0.102 µM)	0.015 (≈ 0.0381 µM)	0.03 (≈ 0.0762 µM)	0.001 (≈ 0.00254 µM)	0.015 (≈ 0.0381 µM)	0.001 (≈ 0.00254 µM)						
CS(=O)(=O)c1ccc(NC(=O)C(=O)c2c(-c3ccccc3)cc3ccccn23)cc1 [Example 257, N-(4-Methanesulfonyl-phenyl)-2-oxo-2-(2-phenyl-indolizin-3-yl)-acetamide]	0.4 (≈ 0.956 µM)	6.25 (≈ 14.9 µM)	0.8 (≈ 1.91 µM)	0.4 (≈ 0.956 µM)	3.1 (≈ 7.41 µM)	0.4 (≈ 0.956 µM)						
O=C(Nc1ccc(N2CCSCC2)cc1)C(=O)c1c(-c2ccccc2)cc2ccccn12 [Example 258, 2-Oxo-2-(2-phenyl-indolizin-3-yl)-N-(4-thiomorpholin-4-yl-phenyl)-acetamide]	0.015 (≈ 0.034 µM)	0.03 (≈ 0.0679 µM)	0.03 (≈ 0.0679 µM)	0.008 (≈ 0.0181 µM)	0.015 (≈ 0.034 µM)	0.008 (≈ 0.0181 µM)						
Cc1ccc(NC(=O)C(=O)c2c(-c3ccccc3)cc3ccccn23)c(C)c1C [Example 259, 2-Oxo-2-(2-phenyl-indolizin-3-yl)-N-(2,3,4-trimethyl-phenyl)-acetamide]	0.015 (≈ 0.0392 µM)	0.06 (≈ 0.157 µM)	0.03 (≈ 0.0784 µM)	0.002 (≈ 0.00523 µM)	0.06 (≈ 0.157 µM)	0.004 (≈ 0.0105 µM)						
O=C(Nc1ccc(N2CCCC2)cc1)C(=O)c1c(-c2ccccc2)cc2ccccn12 [Example 260, 2-Oxo-2-(2-phenyl-indolizin-3-yl)-N-(4-pyrrolidin-1-yl-phenyl)-acetamide]	0.008 (≈ 0.0195 µM)	0.015 (≈ 0.0366 µM)	0.015 (≈ 0.0366 µM)	0.008 (≈ 0.0195 µM)	0.03 (≈ 0.0733 µM)	0.008 (≈ 0.0195 µM)						
CN1CCc2cc(NC(=O)C(=O)c3c(-c4ccccc4)cc4ccccn34)ccc21 [Example 261, N-(1-Methyl-2,3-dihydro-1H-indol-5-yl)-2-oxo-2-(2-phenyl-indolizin-3-yl)-acetamide]	0.004 (≈ 0.0101 µM)	0.03 (≈ 0.0759 µM)	0.06 (≈ 0.152 µM)	0.004 (≈ 0.0101 µM)	0.03 (≈ 0.0759 µM)	0.001 (≈ 0.00253 µM)						
CCN(CC)C(=O)Oc1cccc(NC(=O)C(=O)c2c(-c3ccccc3)cc3ccccn23)c1 [Example 266, Diethyl-carbamic acid 3-[2-oxo-2-(2-phenyl-indolizin-3-yl)-acetylamino]-phenyl ester]							0.2 (≈ 0.439 µM)	0.8 (≈ 1.76 µM)	6.25 (≈ 13.7 µM)	0.2 (≈ 0.439 µM)	1.6 (≈ 3.51 µM)	0.2 (≈ 0.439 µM)

More lines, main results first:

MIC (Aspergillus flavus; YAG medium) [µg/mL]	MIC [1, 3] [µg/mL]	MIC (Aspergillus niger; YAG medium) [µg/mL]	MIC (Aspergillus terreus; YAG medium) [µg/mL]	MIC [2, 4] [µg/mL]	MIC (A Terreus 49; YAG medium) [µg/mL]	SMILES	MIC (Aspergillus flavus) [µg/mL]	MIC ([1]; AF293, read-out: MIC A Fum. 293) [µg/mL]	MIC (Aspergillus niger) [µg/mL]	MIC (Aspergillus terreus) [µg/mL]	MIC ([2]; AF210, read-out: MIC A Fum. 210) [µg/mL]	MIC (A Terreus 49) [µg/mL]
1.6 (≈ 3.65 µM)	1.6 (≈ 3.65 µM)	6.25 (≈ 14.3 µM)	1.6 (≈ 3.65 µM)	1.6 (≈ 3.65 µM)	1.6 (≈ 3.65 µM)	CN1CCN(c2ccc(NC(=O)C(=O)c3c(-c4ccccc4)cc4ccccn34)cc2)CC1 [Example 262, N-[4-(4-Methyl-piperazin-1-yl)-phenyl]-2-oxo-2-(2-phenyl-indolizin-3-yl)-acetamide]						
0.05 (≈ 0.103 µM)	0.4 (≈ 0.82 µM)	0.8 (≈ 1.64 µM)	0.2 (≈ 0.41 µM)	0.4 (≈ 0.82 µM)	0.1 (≈ 0.205 µM)	CN(Cc1ccccc1)C(=O)c1cccc(NC(=O)C(=O)c2c(-c3ccccc3)cc3ccccn23)c1 [Example 263, N-Benzyl-N-methyl-3-[2-oxo-2-(2-phenyl-indolizin-3-yl)-acetylamino]-benzamide]						
0.05 (≈ 0.117 µM)	0.05 (≈ 0.117 µM)	0.05 (≈ 0.117 µM)	0.015 (≈ 0.0352 µM)	0.05 (≈ 0.117 µM)	0.008 (≈ 0.0188 µM)	CC1(c2ccc(NC(=O)C(=O)c3c(-c4ccccc4)cc4ccccn34)cc2)OCCO1 [Example 264, N-[4-(2-Methyl-[1,3]dioxolan-2-yl)-phenyl]-2-oxo-2-(2-phenyl-indolizin-3-yl)-acetamide]						
0.1 (≈ 0.243 µM)	> 50	0.008 (≈ 0.0194 µM)	0.015 (≈ 0.0364 µM)	> 50	0.06 (≈ 0.146 µM)	O=C(Nc1ccc(F)cc1F)C(=O)c1c(-c2ccc(F)cc2F)cc2ccccn12 [Example 265, N-(2,4-Difluoro-phenyl)-2-[2-(2,4-difluoro-phenyl)-indolizin-3-yl]-2-oxo-acetamide]						
0.05 (≈ 0.131 µM)	0.4 (≈ 1.05 µM)	0.4 (≈ 1.05 µM)	0.1 (≈ 0.261 µM)	0.8 (≈ 2.09 µM)	0.05 (≈ 0.131 µM)	CC(=O)c1cccc(NC(=O)C(=O)c2c(-c3ccccc3)cc3ccccn23)c1 [Example 267, N-(3-Acetyl-phenyl)-2-oxo-2-(2-phenyl-indolizin-3-yl)-acetamide]						
0.03 (≈ 0.0736 µM)	0.1 (≈ 0.245 µM)	0.015 (≈ 0.0368 µM)	0.015 (≈ 0.0368 µM)	0.06 (≈ 0.147 µM)	0.015 (≈ 0.0368 µM)	O=C(Nc1ccc(-c2ncco2)cc1)C(=O)c1c(-c2ccccc2)cc2ccccn12 [Example 268, N-(4-Oxazol-2-yl-phenyl)-2-oxo-2-(2-phenyl-indolizin-3-yl)-acetamide]						
0.2 (≈ 0.492 µM)	1.6 (≈ 3.94 µM)	0.1 (≈ 0.246 µM)	0.2 (≈ 0.492 µM)	1.6 (≈ 3.94 µM)	0.2 (≈ 0.492 µM)	COc1ccccc1-c1cc2ccccn2c1C(=O)C(=O)Nc1ccc(F)cc1F [Example 269, N-(2,4-Difluoro-phenyl)-2-[2-(2-methoxy-phenyl)-indolizin-3-yl]-2-oxo-acetamide]						
0.004 (≈ 0.0101 µM)	0.062 (≈ 0.156 µM)	0.12 (≈ 0.302 µM)	0.004 (≈ 0.0101 µM)	0.031 (≈ 0.078 µM)	0.002 (≈ 0.00503 µM)	Cc1cc(NC(=O)C(=O)c2c(-c3ccccc3)cc3ccccn23)ccc1N(C)C [Example 273, N-(4-Dimethylamino-3-methyl-phenyl)-2-oxo-2-(2-phenyl-indolizin-3-yl)-acetamide]						
0.05 (≈ 0.115 µM)	0.1 (≈ 0.231 µM)	0.05 (≈ 0.115 µM)	0.05 (≈ 0.115 µM)	0.2 (≈ 0.461 µM)	0.015 (≈ 0.0346 µM)	O=C(Nc1ccc(Nc2ncccn2)cc1)C(=O)c1c(-c2ccccc2)cc2ccccn12 [Example 276, 2-Oxo-2-(2-phenyl-indolizin-3-yl)-N-[4-(pyrimidin-2-ylamino)-phenyl]-acetamide]						
0.03 (≈ 0.073 µM)	0.4 (≈ 0.974 µM)	0.03 (≈ 0.073 µM)	0.015 (≈ 0.0365 µM)	0.05 (≈ 0.122 µM)	0.2 (≈ 0.487 µM)	O=C(Nc1ccc(F)cc1F)C(=O)c1c(-c2ccccc2Cl)cc2ccccn12 [Example 277, 2-[2-(2-Chloro-phenyl)-indolizin-3-yl]-N-(2,4-difluoro-phenyl)-2-oxo-acetamide]						
6.25 (≈ 15.7 µM)	25 (≈ 62.9 µM)	25 (≈ 62.9 µM)	6.25 (≈ 15.7 µM)	12.5 (≈ 31.4 µM)	12.5 (≈ 31.4 µM)	CN(C)Cc1ccc(NC(=O)C(=O)c2c(-c3ccccc3)cc3ccccn23)cc1 [Example 278, N-(4-Dimethylaminomethyl-phenyl)-2-oxo-2-(2-phenyl-indolizin-3-yl)-acetamide]						
0.031 (≈ 0.0827 µM)	0.25 (≈ 0.667 µM)	0.031 (≈ 0.0827 µM)	0.031 (≈ 0.0827 µM)	0.12 (≈ 0.32 µM)	0.008 (≈ 0.0213 µM)	O=C(Nc1ccc(Cl)cc1)C(=O)c1c(-c2ccccc2)cc2ccccn12 [Example 281, N-(4-Chloro-phenyl)-2-oxo-2-(2-phenyl-indolizin-3-yl)-acetamide]						
0.008 (≈ 0.0194 µM)	0.1 (≈ 0.242 µM)	0.1 (≈ 0.242 µM)	0.015 (≈ 0.0364 µM)	0.1 (≈ 0.242 µM)	0.004 (≈ 0.0097 µM)	COc1ccc(NC(=O)C(=O)c2c(-c3ccccc3)cc3ccccn23)cc1C(C)=O [Example 282, N-(3-Acetyl-4-methoxy-phenyl)-2-oxo-2-(2-phenyl-indolizin-3-yl)-acetamide]						
